Results on 22 molecules are retold here after patent US8853424B2 (Japan Science and Technology Agency, priority 2008, dated 2014).

Like-named read-outs stand apart in the source and are kept apart here.

Assay [1] concerns transglutaminase (TGase). The assay can be described thus: Measurement of TG (TGase inhibitory activity, monodansyl cadaverine / N,N-dimethylcasein fluorescence, FDSS 3000). The assay is classed as biochemical. The method, boiled down:
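Compound (1 μL of 10 mM stock) added to 0.1 mL reaction: 100 mM HEPES-NaOH pH 7.5, 1 mM CaCl2, 20 μM monodansyl cadaverine, 0.05 mg/mL N,N-dimethylcasein, 5 μg/mL TGase. Rate of fluorescence change at 340 nm measured; DMSO control set to 100; TG50 is the concentration halving activity.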

Assay [2] has as its system Truncated N-terminal huntington 150 Q-EGFP-Neuron 2a cells. Briefly: Measurement of x-Fold (polyglutamine aggregation inhibitory activity). The assay is classed as cell-based. As to the method: In the present invention, the polyglutamine aggregation inhibitory activity (x-Fold) can be measured, for example, by the method described in the Example.
The number of the aggregated cells, and the total number of cells were counted by Array Scan V T1 (manufactured by Cellomics, Pittuburg, USA), and the ratio of the aggregated cells to the total number of cells was determined (x-Fold). […]

Assay [3] relates to SOC (store operated calcium channel). The assay can be described thus: Measurement of SOC IC50 (thapsigargin store depletion, calcium re-addition, CHO cells). The assay is classed as cell-based. To be noted: read-out: SOC IC50. The protocol: The SOC (store operated calcium channel)-suppressive action can be measured by the method described in the Example and using, for example, FDSS 3000.
CHO cell culture medium was replaced with a BSS solution which is an extracellular fluidfree of calcium, the compound of the present invention was added 1 min later, and 1 μM thapsigargin was allowed to act thereon 2 min later to deplete intracellular calcium store. […]

Setting [4] is: TGase activity with compound (10 mM, 1 μL in 0.1 ml enzyme reaction solution), DMSO control taken as 100.
Where [5] appears, read: TGase inhibitory activity value, Table 1.
Where [6] appears, read: polyglutamine aggregation inhibitory activity, Table 1.
Where [7] appears, read: ratio of aggregated cells to total number of cells, compound 20 μM, 20 hr, almost 1 without compound, smaller = stronger inhibition.
Setting [8] is: Cricetulus griseus, CHO, CHO cells, 1 μM thapsigargin, 2 mM calcium chloride.
The mark [9] stands for this setting: Cricetulus griseus, CHO, Table 1.
[10] abbreviates: CHO cells, 1 μM thapsigargin, 2 mM calcium chloride.
[11] abbreviates: TGase inhibitory activity measurement, unit not given.
Setting [12] is: polyglutamine aggregation, Truncated N-terminal huntington 150 Q-EGFP-Neuron 2a cells.

For orientation: IC50 means the concentration at which inhibition is half-maximal. On to `Cc1ccc(B(Oc2ccccc2N)c2ccc(C)c(Cl)c2)cc1Cl` [Example 220, di(3-chloro-4-methylphenyl) 2-aminophenylborinate], for which the “TGase activity remaining (% of DMSO control = 100)” value in assay [1] (setting [4]) and in assay [1] (setting [5]) was 26 each time. Also, the x-Fold in assay [2] (setting [6]) and in assay [2] (setting [7]) was 0.50 each time. The IC50 in assay [3] (setting [8]) and in assay [3] (setting [9]) was 500 nM throughout.
Turning to `NC(=O)CCC(N)C(=O)OB(c1ccccc1)c1ccc(Oc2ccc(B(OC(=O)C(N)CCC(N)=O)c3ccccc3)cc2)cc1` (centres unmarked) [Example 388, bis(4,4′-(phenyl-glutamineboryl)phenyl)ether], the “TGase activity remaining (% of DMSO control = 100)” value in assay [1] (setting [4]) is given as 41; in assay [1] (TGase inhibitory activity value, Table 1, listed as 7085), 41. For the same molecule, the x-Fold in assay [2] (polyglutamine aggregation inhibitory activity, Table 1, listed as 7085) turned out to be 0.67; in assay [2] (setting [7]), 0.67. The IC50 in assay [3] (setting [10]) stood at 500 nM.
For the molecule `OCCCCB(O)c1ccccc1` [Example 114, 4-hydroxybutylphenylborinic acid], the “TGase activity remaining (% of DMSO control = 100)” value in assay [1] (setting [4]) and in assay [1] (setting [5]) was 120 in each case. The x-Fold in assay [2] (setting [6]) and in assay [2] (setting [7]) was 0.99 each time. Moreover, the IC50 in assay [3] (setting [8]) and in assay [3] (setting [9]) was 2000 nM each time.
As for `NCCOB(c1ccccc1)c1ccc(B(OCCN)c2ccccc2)cc1` [Example 118, 1,4-bis(phenyl-2-aminoethoxyboryl)benzene], the “TGase activity remaining (% of DMSO control = 100)” value in assay [1] (setting [4]) and in assay [1] (setting [5]) was 93 throughout. In addition, the x-Fold in assay [2] (setting [6]) and in assay [2] (setting [7]) was 0.97 each time. For the same molecule, the IC50 in assay [3] (setting [8]) and in assay [3] (setting [9]) was 2000 nM throughout.
For `OB(c1ccccc1)c1cccc(B(O)c2ccccc2)c1` [Example 119, 1,3-bis(phenylhydroxyboryl)benzene], in assay [1] (setting [4]), the “TGase activity remaining (% of DMSO control = 100)” value is listed as 101. For the same molecule, the x-Fold in assay [2] (setting [7]) turned out to be 0.84. In addition, the IC50 in assay [3] (setting [8]) was greater than 20000 nM.
As for `OB(c1ccccc1)c1ccccc1COCc1ccccc1B(O)c1ccccc1` [Example 486, bis(2,2′-(phenylhydroxyboryl)benzyl)ether], in assay [1] (setting [4]), the “TGase activity remaining (% of DMSO control = 100)” value was found to be 52. Also, the x-Fold in assay [2] (setting [7]) was found to be 1.04. Further, the IC50 in assay [3] (setting [10]) came to 500 nM.
For the molecule `Cc1ccc(B(OC(=O)C(N)C(C)O)c2ccc(C)c(Cl)c2)cc1Cl` (centres unmarked) [Example 291, di(3-chloro-4-methylphenyl)(allothreoninate-O,N)borane], the “TGase activity remaining (% of DMSO control = 100)” value in assay [1] (setting [4]) and in assay [1] (setting [5]) was 50 in each case. Also, the x-Fold in assay [2] (setting [6]) and in assay [2] (setting [7]) was 1.02 each time. Besides, the IC50 in assay [3] (setting [8]) and in assay [3] (setting [9]) was 500 nM each time.
“4,4′(phenyl-2-aminoethoxyboryl)diphenyl [Example 10]”: the “TGase activity remaining (% of DMSO control = 100)” value in assay [1] (setting [4]) and in assay [1] (setting [5]) was 7 throughout. Moreover, the x-Fold in assay [2] (setting [6]) and in assay [2] (setting [7]) was 0.92 throughout. Also, the IC50 in assay [3] (setting [10]) turned out to be 500 nM.
`CCCCC(N)C(=O)OB(c1ccc(C)c(Cl)c1)c1ccc(C)c(Cl)c1` (centres unmarked) [Example 292, di(3-chloro-4-methylphenyl)(norloysinate-O,N)borane]: the “TGase activity remaining (% of DMSO control = 100)” value in assay [1] (setting [4]) was found to be 146; in assay [1] (TGase inhibitory activity value, Table 1, listed as 5020) it was 146. Further, the x-Fold in assay [2] (polyglutamine aggregation inhibitory activity, Table 1, listed as 5020) came out at 1.00; in assay [2] (setting [7]) it was 1.00. Further, the half-maximal inhibitory concentration (IC50) in assay [3] (setting [8]) and in assay [3] (setting [9]) was 1000 nM each time.
On to `NC(CCC(=O)O)C(=O)OB(c1ccccc1)c1ccc(Oc2ccc(B(OC(=O)C(N)CCC(=O)O)c3ccc(CO)cc3)cc2)cc1` (centres unmarked) [Example 275, (4-(phenyl-glutamic acid boryl)phenyl)-(4′-(hydroxymethylphenyl-glutamic acid boryl)phenyl)ether], for which, in assay [1] (setting [4]), the “TGase activity remaining (% of DMSO control = 100)” value came out at 117. The x-Fold in assay [2] (setting [7]) is given as 0.67. Moreover, in assay [3] (setting [8]), the IC50 came to 300 nM.
Take `Cc1ccc(B(OCC2CCCCN2)c2ccc(C)c(Cl)c2)cc1Cl` (centres unmarked) [Example 247, di(3-chloro-4-methylphenyl) 2-piperidinomethylborinate]: the “TGase activity remaining (% of DMSO control = 100)” value in assay [1] (setting [4]) stood at 99. Moreover, in assay [2] (setting [7]), the x-Fold is reported as 0.91. The IC50 in assay [3] (setting [8]) was 700 nM.
On to `Cc1ccc(B(OC(c2ccccc2)C(N)c2ccccc2)c2ccc(C)c(Cl)c2)cc1Cl` (centres unmarked) [Example 225], for which the “TGase activity remaining (% of DMSO control = 100)” value in assay [1] (setting [4]) and in assay [1] (setting [5]) was 109 each time. Also, the x-Fold in assay [2] (setting [6]) and in assay [2] (setting [7]) was 1.03 each time. Moreover, the IC50 in assay [3] (setting [8]) and in assay [3] (setting [9]) was 500 nM each time.
Turning to `NC(=O)CCC(N)C(=O)OB(c1ccccc1)c1ccccc1` (centres unmarked) [Example 269, diphenyl(glutaminate-O,N)borane], the “TGase activity remaining (% of DMSO control = 100)” value in assay [1] (setting [4]) was 95; in assay [1] (TGase inhibitory activity value, Table 1, listed as 879), 95. Moreover, the x-Fold in assay [2] (polyglutamine aggregation inhibitory activity, Table 1, listed as 879) is listed as 1.01; in assay [2] (setting [7]), 1.01. In addition, the IC50 in assay [3] (setting [8]) and in assay [3] (setting [9]) was 3000 nM throughout.
Take `CCC(C)B(OCCN)c1ccccc1` (centres unmarked) [Example 110, aminoethyl secondary-butyl phenylborinate]: the “TGase activity remaining (% of DMSO control = 100)” value in assay [1] (setting [4]) and in assay [1] (setting [5]) was 115 in each case. Moreover, the x-Fold in assay [2] (setting [6]) and in assay [2] (setting [7]) was 1.02 in each case. Also, the concentration for half-maximal inhibition (IC50) in assay [3] (setting [8]) and in assay [3] (setting [9]) was greater than 10000 nM throughout.
With `Cc1ccc(B(O)c2ccc(COCc3ccc(B(O)c4ccc(C)cc4)cc3)cc2)cc1` [Example 361, bis(4-(4-methylphenylhydroxyboryl)benzyl)ether], the “TGase activity remaining (% of DMSO control = 100)” value in assay [1] (setting [4]) and in assay [1] (setting [5]) was 100 each time. Also, the x-Fold in assay [2] (setting [6]) and in assay [2] (setting [7]) was 0.88 each time. The IC50 in assay [3] (setting [8]) and in assay [3] (setting [9]) was greater than 20000 nM throughout.
Take `Cc1ccc(B(OCC(N)c2ccccc2)c2ccc(C)c(Cl)c2)cc1Cl` (centres unmarked) [Example 214]: the “TGase activity remaining (% of DMSO control = 100)” value in assay [1] (setting [4]) and in assay [1] (setting [5]) was −7 in each case. Besides, the x-Fold in assay [2] (setting [6]) and in assay [2] (setting [7]) was 0.90 in each case. Also, the IC50 in assay [3] (setting [8]) and in assay [3] (setting [9]) was 2000 nM throughout.
In the case of `NCCOB(c1ccccc1)c1ccccc1` [Example 487, 2-aminoethyl diphenylborinate], in assay [1] (setting [4]), the “TGase activity remaining (% of DMSO control = 100)” value is 90. Besides, the x-Fold in assay [2] (setting [7]) was 0.64. The IC50 in assay [3] (Cricetulus griseus, CHO) came to 3000 nM.
For `Cc1ccc(B(Sc2ccccc2N)c2ccc(C)c(Cl)c2)cc1Cl` [Example 283, di(3-chloro-4-methylphenyl) 2-aminophenylthioborane], the “TGase activity remaining (% of DMSO control = 100)” value in assay [1] (setting [4]) and in assay [1] (setting [5]) was 12 throughout. The x-Fold in assay [2] (setting [6]) and in assay [2] (setting [7]) was 0.83 in each case. The IC50 in assay [3] (setting [8]) and in assay [3] (setting [9]) was 900 nM in each case.
`CC(CN)OB(c1ccccc1)c1cccc(COCc2cccc(B(OC(C)CN)c3ccccc3)c2)c1` (centres unmarked) [Example 465, bis(3,3′-(phenyl-1-methyl-2-aminoethoxyboryl)benzyl)ether]: the “TGase activity remaining (% of DMSO control = 100)” value in assay [1] (setting [4]) and in assay [1] (setting [11]) was 18 in each case. Moreover, the x-Fold in assay [2] (setting [12]) and in assay [2] (setting [7]) was 1.06 throughout. Further, the IC50 in assay [3] (setting [10]) amounted to 200 nM.
Regarding `Cc1ccc(B(O)c2ccc(COCc3ccc(B(O)c4ccc(C)c(Cl)c4)cc3)cc2)cc1Cl` [Example 322, bis(4,4′-(3-chloro-4-methylphenylhydroxyboryl)benzyl)ether], the “TGase activity remaining (% of DMSO control = 100)” value in assay [1] (setting [4]) is 98. Besides, in assay [2] (setting [7]), the x-Fold was 0.32. In assay [3] (setting [10]), the IC50 was 200 nM.
`NC(=O)CC(N)C(=O)OB(c1ccccc1)c1ccc(Oc2ccc(B(OC(=O)C(N)CC(N)=O)c3ccccc3)cc2)cc1` (centres unmarked) [Example 274, bis(4,4′-(phenylasparagineboryl)phenyl)ether]: in assay [1] (setting [4]), the “TGase activity remaining (% of DMSO control = 100)” value was determined as 56. Besides, the x-Fold in assay [2] (setting [7]) was 0.59. The concentration for half-maximal inhibition (IC50) in assay [3] (setting [10]) is 300 nM.
In the case of “bis(3,3′-(phenyl-2-benzyl-2-amino-ethoxyboryl)benzyl)ether [Example 481]”, the “TGase activity remaining (% of DMSO control = 100)” value in assay [1] (setting [4]) and in assay [1] (setting [11]) was 48 throughout. For the same molecule, the x-Fold in assay [2] (setting [12]) and in assay [2] (setting [7]) was 0.80 each time. Moreover, in assay [3] (setting [10]), the IC50 is 1500 nM.
